No end group written: not given here.
Tested on: INS-1E cells
Test: Glucose-stimulated insulin secretion assay
Format: cell-based, rat
Settings: 2 h preincubation with RG54 at 3.3 mmol/l glucose, then 1 h at 20 mmol/l glucose without peptide; ELISA; three independent experiments
Description: INS-1E cells were preincubated for 2 h with HEPES KRB supplemented with 3.3 mmol/l glucose and RG54, then stimulated for 1 h with HEPES KRB supplemented with either 3.3 or 20 mmol/l glucose but no RG54 peptide, and insulin secretion was analysed using ELISA (Mercodia, Uppsala, Sweden). See ESM Methods for more details.
Fig. 3 RG54 induces skeletal muscle glucose uptake and primes INS-1E cells to increase GSIS. (a) C2C12 skeletal muscle myotubes were incubated in the absence or presence of different concentrations of RG54 or with insulin, followed by glucose uptake measurements. Values are means ± SEM from three independent experiments. *p≤0.05, **p≤0.01, ***p≤0.001 vs control. […] Insulin secretion was measured after 1 h glucose challenge. […]
Peptide concentration was determined at 205 nm using a NanoDrop 2000c spectrophotometer (Thermo Scientific) and integrity was analysed by Tris-Tricine SDS-PAGE followed by coomassie staining or by circular dichroism spectroscopy (CD). […]
The primary goal of this study was to investigate the anti -diabetic and anti-atherosclerotic efficacy of a novel ApoA -I derived peptide. Using a range of in vitro models, we assessed the effects of the peptide on HDL formation, cholesterol efflux, insulin secretion, and non -insulin dependent glucose uptake. […] Peptide effects were measured relative to full length ApoA -I and vehicle controls. […]

## Ac-AEYHAKATEHLSTLSEKAKPALEDLRQGLLPVLESFKVSFLSALEEYTKKLNTQ [RG54]
  GSIS compared with control cells: up to a twofold increase

— publication PMC6560211, “ApoAI-derived peptide increases glucose tolerance and prevents formation of atherosclerosis in mice” (Diabetologia, 2019)
